“Also recorded” adds a separate entry of the source.
What was measured:
Type in all cases: cell-based
[1] = tested on: murine triple negative breast cancer cell line EMT6; test: Death receptor 5 antibody (MD5-1) induced apoptosis in EMT6 cells in combination with SIK3 inhibitor; settings: 0.8 ng/ml murine death receptor 5 targeting antibody (clone MD5-1) plus E9 vs DMSO control, caspase 3/7 at 8 hours, annexin V and cytotox red at 24 hours, FIG. 4
Procedure: (§1) The experiments were done briefly as follows: murine colorectal carcinoma cell line MC38, murine triple negative breast cancer cell line EMT6 and human melanoma tumor cell line A375 were treated with 1 ng/ml TNF, 0.8 ng/ml murine death receptor 5 targeting antibody (clone MD5-1) and 10 ng/ml complexed TRAIL, respectively, or with the appropriate negative controls, in combination with the SIK3 inhibitor E9 and an associated DMSO control. The onset of tumor cell death was monitored 8 hours after treatment initiation by analyzing cleavage of effector caspases 3/7 using Caspase-Glo® assay from Promega according to manufacturer's protocol. In addition, 24 hours after treatment initiation, the increase in extracellular phosphatidylserine expression was measured by annexin V expression level and cell membrane disruption by cytotox red staining, both according to manufacturer's protocol.

[2] = tested on: murine colorectal carcinoma cell line MC38; test: TNF induced apoptosis in MC38 cells in combination with SIK3 inhibitor; settings: 1 ng/ml TNF plus E9 vs DMSO control, caspase 3/7 at 8 hours, annexin V and cytotox red at 24 hours, FIG. 3
Procedure: as §1

[3] = tested on: human melanoma tumor cell line A375; test: Complexed TRAIL induced apoptosis in A375 cells in combination with SIK3 inhibitor; settings: 10 ng/ml complexed TRAIL plus E9 vs DMSO control, caspase 3/7 at 8 hours, annexin V and cytotox red at 24 hours, FIG. 5
Procedure: as §1

Question: What does the source list for `Cc1nc(Nc2ncc(C(=O)Nc3c(CF)csc3Cl)s2)cc(N2CCN(C)CC2)n1` [Compound E9, N-(2-chloro-4-(fluoromethyl)thiophen-3-yl)-2-((2-methyl-6-(4-methylpiperazin-1-yl)pyrimidin-4-yl)amino)thiazole-5-carboxamide]?
Answer: enhancement of death receptor induced apoptosis (caspase-3/7 cleavage, annexin V, cytotox red) [1]: potent enhancement of death receptor induced apoptosis; also recorded: enhanced death receptor mediated apoptosis; enhancement of death receptor induced apoptosis (caspase-3/7 cleavage, annexin V, cytotox red) [2]: potent enhancement of death receptor induced apoptosis; also recorded: enhanced death receptor mediated apoptosis; enhancement of death receptor induced apoptosis (caspase-3/7 cleavage, annexin V, cytotox red) [3]: enhanced death receptor mediated apoptosis; also recorded: potent enhancement of death receptor induced apoptosis

From patent publication US20250249000A1, “SIK3 INHIBITORS FOR TREATING DISEASES RESISTANT TO DEATH RECEPTOR SIGNALLING” (IOMX THERAPEUTICS AG, priority 2022, published 2025)
